Measured values from patent US11571441B2, “Sideroflexins as mitochondrial serine transporters” (Whitehead Institute for Biomedical Research, priority 2018, dated 2023).
Entries after “also recorded” stand apart in the source; their conditions may differ. Where two headings read alike, the source gives them in different places.

T1: SFXN1 (Homo sapiens, UniProt Q9H9B4)
T1 construct: made in house
T1 sequence (Q9H9B4 1-322): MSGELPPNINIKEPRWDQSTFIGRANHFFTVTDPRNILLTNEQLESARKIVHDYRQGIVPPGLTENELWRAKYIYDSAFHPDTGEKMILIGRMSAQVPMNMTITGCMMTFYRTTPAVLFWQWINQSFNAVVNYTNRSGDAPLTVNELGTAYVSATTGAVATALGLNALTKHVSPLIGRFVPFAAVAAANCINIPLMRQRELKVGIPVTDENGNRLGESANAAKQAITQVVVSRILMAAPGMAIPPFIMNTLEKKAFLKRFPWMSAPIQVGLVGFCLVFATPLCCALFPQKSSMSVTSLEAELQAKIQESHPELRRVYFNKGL


Tests used:
SFXN1 [1] = assay: Amino acid uptake into mitochondria isolated from wild-type or SFXN1-null Jurkat cells; format: biochemical, human; conditions: 0.75 μM [3H] serine or 3 μM [3H] glutamate, 30° C.
Method: Mitochondria from wild-type or SFXN1-null Jurkat cells were prepared according to (45). Briefly, cells (˜1 g starting material) were resuspended in low tonicity buffer (100 mM sucrose, 10 mM MOPS pH 7.2, 1 mM EGTA, 0.1% BSA) and disrupted with 20 strokes in a homogenizer containing a pure PTFE head (VWR International) and two strokes with a dounce tissue grinder with tight-fitting pestle (DWK Life Sciences Kimbl Kontes). After adjusting tonicity, lysates were spun twice at 950×g to remove unbroken cells and nuclei, and mitochondria were pelleted by centrifuging at 10,000×g for 10 min. […] Mitochondrial preparations were adjusted for protein content. […] 50 μl samples were collected immediately after start of the reaction and at 1, 2, 3 mins and added to mixed cellulose-ester filters (Fisher Scientific, 0.22 μm pore size) connected to a vacuum line (adapted from (47)). Filters were washed with 3 mL of ice cold TBS and the radioactivity remaining on the filters was measured using a scintillation counter. Blank reaction samples, in which mitochondria were replaced with incubation media, were used to subtract the background. The uptake rate was calculated from the first two minutes of the reaction.

SFXN1 [2] = molecular target: T1, SFXN1; assay: In vitro transport assay: [3H] serine/alanine uptake into SFXN1 proteoliposomes; format: biochemical; conditions: for competition of serine uptake by different metabolites (FIG. 3C) / competition of serine uptake by different metabolites (FIG. 3B): after 60 min, SFXN1 liposomes; for competition of serine uptake by different metabolites (FIG. 3C): metabolites at 500 μM; for Km: steady-state kinetic analysis, proteoliposomes
Method: (§1) In vitro transport assays were performed as described previously with the following specifications. Flag-SFXN1 was purified from 293T cells stably expressing the protein using FLAG-affinity purification and eluted off beads with FLAG peptide.
(§2) 1% Phosphatidylcholine was added to total E. coli lipids in chloroform, evaporated under nitrogen and desiccated overnight. Dried lipids were hydrated in inside buffer (20 mM MES pH 7, 50 mM NaCl, 20 mM KCl) by freeze-thawing in liquid nitrogen 20× times. Lipids were extruded 6× though a 0.4 μm filter and 15× through a 0.1 μm filter. 15 ug of purified SFXN1 protein were reconstituted into 1.2 mg liposomes using a detergent:lipid ratio of 5:1 with the addition of 1 mM DTT in inside buffer rotating at 4 degree for 1 hour. The proteoliposomes were incubated for 3 sequential rounds with Bio-beads to remove detergent. A liposome-only control was prepared by replacing the protein with inside buffer in the reconstitution reaction. Incorporation of protein into liposomes was assessed using glycerol gradient centrifugation. A buffer containing 20 mM Tris-HCL pH 7.4 and 100 mM NaCl was used as outside buffer in transport reactions.
In vitro transport assays were performed as described previously (43, 44) with the following specifications. FLAG-SFXN1 was purified from HEK-293T cells stably expressing the protein using FLAG-affinity purification and eluted off the beads with the FLAG peptide.
1% Phosphatidylcholine was added to total E. coli lipids in chloroform, evaporated under nitrogen and desiccated overnight. Dried lipids were hydrated in inside buffer (20 mM MES pH 7, 50 mM NaCl, 20 mM KCl) by freeze-thawing in liquid nitrogen 20× times. Lipids were extruded 6× through a 0.4 μm filter and 15× through a 0.1 μm filter. 15 μg of purified SFXN1 protein were reconstituted into 1.2 mg liposomes using a detergent:lipid ratio of 5:1 with the addition of 1 mM DTT in inside buffer rotating at 4° C. for 1 hour. The proteoliposomes were incubated for 3 sequential rounds with Bio-Beads to remove detergent. A liposome-only control was prepared by replacing the protein with inside buffer in the reconstitution reaction. Incorporation of protein into liposomes was assessed using a glycerol gradient centrifugation assay. [3H] […] Different lots of total E. coli lipid extracts were tested and ones that optimally preserved SFXN1 activity were used in experiments.

[3] = tested on: SFXN1-null cells (Jurkat and K562); assay: Cell proliferation assay (Cell titer glo) in serine-deficient media, formate rescue; format: cell-based, human; conditions: 1 mM formate added, 4 days
Method: (§3) 10,000 cells per well were seeded into 96 well plates in triplicate. Cell titer glo reagent (Promega) was added to one plate immediately after seeding and luminescence was measured, while a second plate was read-out 4 days after seeding. Number of doublings in 4 days was determined by calculating the log2 fold-change in signal between day 0 and 4. For formate rescue experiments, 1 mM formate was added to cells at time of seeding (Jurkat cells) or cells were cultured in formate-containing media for 1 week prior to the experiment (K562 cells) unless indicated otherwise.
(§4) 10,000 cells per well were seeded into 96-well plates in triplicate. Cell titer glo reagent (Promega) was added to one plate immediately after seeding and luminescence was measured, while a second plate was read-out 4 days after seeding. Number of doublings in 4 days was determined by calculating the log2 fold-change in signal between day 0 and 4. For formate rescue experiments, 1 mM formate was added to media at the time of seeding (Jurkat cells) or cells were cultured in formate-containing media for 1 week prior to the experiment (K562 cells) unless indicated otherwise.

SFXN1-null Jurkat cells = assay: LC-MS metabolite quantification (purine synthesis intermediates, serine, glycine) in SFXN1-null cells; format: cell-based, human; conditions: 1 mM formate, 24 hours in indicated media
Method: Quantification of metabolite abundance using LC/MS-based metabolomics was performed and analyzed as previously described. Briefly, Jurkat or K562 cells were seeded at densities of 0.6×10^6 per ml and 0.33×10^6 per ml, respectively. 24 h later, 2×10^6 Jurkat or 1×10^6 K562 cells were harvested, washed once in ice-cold 0.9% saline prepared with LC-MS grade H2O, and extracted with 80% methanol containing 500 nM isotope-labeled amino acids as internal standards (Cambridge Isotope Laboratories). The samples were vortexed for 10 min at 4° C. and spun down at 17,000×g. The supernatant was dried by vacuum centrifugation at 4° C. Samples were stored at −80° C. until analyzed. On the day of analysis, samples were resuspended in 50-100 μL of LC/MS grade water and the insoluble fraction was cleared by centrifugation at 15,000 rpm. The supernatant was then analyzed as previously described by LC/MS (21, 33). […]
Metabolite abundance using LC/MS-based metabolomics was measured and quantified as previously described (15). […] Samples were stored at −80° C. until analyzed. […] The supernatant was then analyzed as previously described by LC-MS (15, 38) Amino acids were normalized to their respective internal standards, purine synthesis intermediates were normalized to the glutamate internal standard. […]

[4] = tested on: SFXN1/3-null Jurkat cells; assay: Cell proliferation assay in glycine-deficient media, formate rescue; format: cell-based, human; conditions: 1 mM formate, cells cultured with it 2 days before the experiment
Method: as §3, §4

[5] = substrate: C[C@H](N)C(=O)O; assay: purified protein, by the assay type; conditions: other: steady-state kinetic analysis; proteoliposomes
[6] = substrate: N[C@@H](CO)C(=O)O; assay: purified protein, by the assay type; format: biochemical, human; conditions: other: steady-state kinetic analysis; proteoliposomes; [3H] serine 1 μM with increasing unlabeled serine
Method: as §1
as §2, with “reactions. […]” for “reactions.”
1% Phosphatidylcholine was added to total E. coli lipids in chloroform, evaporated under nitrogen and desiccated overnight. […] Incorporation of protein into liposomes was assessed using a glycerol gradient centrifugation assay. […]

Row | competition of serine uptake by different metabolites (FIG. 3B) (SFXN1 [2]) | Molecule | competition of serine uptake by different metabolites (FIG. 3C) (SFXN1 [2]) | other results
1 | – | N[C@@H](CCC(=O)O)C(=O)O [glutamate] | – | radioactive amino acid uptake into mitochondria from SFXN1-null cells compared to wild-type (SFXN1 [1]): unaffected; also recorded: unchanged
2 | – | NCC(=O)O [glycine] | competed with the transport of the labelled serine; also recorded: partially competed with serine | –
3 | – | N[C@@H](CS)C(=O)O [cysteine] | competed with the transport of the labelled serine; also recorded: partially competed with serine | –
4 | – | N[C@@H](CO)C(=O)O [serine] | – | Km (SFXN1 [2]; [3H] serine 1 μM with increasing unlabeled serine, read-out: Km of SFXN1-mediated serine transport): 170 µM; radioactive amino acid uptake into mitochondria from SFXN1-null cells compared to wild-type (SFXN1 [1]): reduced
5 | – | O=C(O)CC(O)(CC(=O)O)C(=O)O [citrate] | Neither formate nor citrate competed with serine transport; also recorded: does not compete with serine | –
6 | able to complete serine uptake | N[C@H](CO)C(=O)O [D-serine] | competed with the transport of the labelled serine | –
7 | able to complete serine uptake | C[C@H](N)C(=O)O [alanine] | competed with the transport of the labelled serine; also recorded: partially competed with serine | Km (SFXN1 [2]; read-out: Km of SFXN1-mediated alanine transport): ~371 µM
8 | able to complete serine uptake | N[C@@H](CO)C(=O)O [L-serine] | competed with the transport of the labelled serine | –
9 | – | SFXN1 (Homo sapiens) (protein, made in house) MSGELPPNINIKEPRWDQSTFIGRANHFFTVTDPRNILLTNEQLESARKIVHDYRQGIVPPGLTENELWRAKYIYDSAFHPDTGEKMILIGRMSAQVPMNMTITGCMMTFYRTTPAVLFWQWINQSFNAVVNYTNRSGDAPLTVNELGTAYVSATTGAVATALGLNALTKHVSPLIGRFVPFAAVAAANCINIPLMRQRELKVGIPVTDENGNRLGESANAAKQAITQVVVSRILMAAPGMAIPPFIMNTLEKKAFLKRFPWMSAPIQVGLVGFCLVFATPLCCALFPQKSSMSVTSLEAELQAKIQESHPELRRVYFNKGL | – | Km [5]: 371 µM; Km [6]: 170 µM; Vmax [6]: 8.2 pmol/min

Row | Molecule | competition of serine uptake by different metabolites (FIG. 3B) (SFXN1 [2]) | competition of serine uptake by different metabolites (FIG. 3C) (SFXN1 [2]) | other results
10 | O=CO [formate] | not able to complete serine uptake | Neither formate nor citrate competed with serine transport | rescue of proliferation of SFXN1-null cells in serine-deficient media [3]: completely restored growth of SFXN1-null cells; also recorded: completely reversed the slow proliferation; also recorded: rescues growth; accumulation of purine synthesis intermediates (GAR, SAICAR, AICAR) in SFXN1-null cells (SFXN1-null Jurkat cells): completely abolish their accumulation; also recorded: abolished the accumulation of the intermediates; also recorded: reverses the accumulation of purine synthesis intermediates; glycine levels and serine/glycine ratio of SFXN1-null cells (SFXN1-null Jurkat cells): without rescuing the cellular serine and glycine levels; also recorded: did not rescue the defects in glycine levels; also recorded: does not rescue glycine levels and serine/glycine ratio; rescue of proliferation of SFXN1/3-null cells in the absence of glycine [4]: unable to rescue the growth defect; also recorded: did not reverse their proliferation defect; also recorded: does not rescue proliferation
